Assay in all cases: NCI-60 cell line screen, 48 h
Assay [1] concerns A549.
In assay [2] the test system is HCT-116.
For assay [3], the system named is ACHN.
For assay [4], the system named is HL-60.
For assay [5], the system named is SF-539.
In assay [6] the test system is MOLT-4.
The test system of assay [7] is HCC 2998.
Assay [8] deals with NCI-H23.
The test system of assay [9] is OVCAR-4.
For assay [10], the system named is HT-29.
Assay [11] has as its system SW-620.
For assay [12], the system named is LOX IMVI.
Assay [13] concerns K562.
For assay [14], the system named is M14.
The test system of assay [15] is SK-MEL-5.
The subject of assay [16] is UO-31.
Assay [17] relates to NCI-H460.
For assay [18], the system named is MDA-MB-435.
Assay [19] has as its system MDA-MB-231.
Assay [20] concerns Hs-578T.

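1) Cells in 96-well plates. 2) Compound, 48 h, 5 concentrations. 3) Linear interpolation between surrounding doses. 4) Unreached endpoint = highest concentration. GI50 = concentration required for 50% inhibition of growth.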 Calls of active or inactive are those of the source. No stated cut-off is given here; in the data, active = GI50 up to about 1.1 µM and inactive = higher.

Turning to `Clc1ccc2[nH]c(CCSCCc3nc4ccc(Cl)cc4[nH]3)nc2c1`, the GI50 was 10 µM (inactive) in assay [1]; 6.21 µM (inactive) in assay [2]; 2.25 µM (inactive) in assay [3]; 0.491 µM (active) in assay [4]; 16.5 µM (inactive) in assay [5]; 3.7 µM (inactive) in assay [6]. Besides, the GI50 in assay [7] is 15.1 µM (inactive); in [8] it was 13.6 µM (inactive); in [9] it was 14.2 µM (inactive); in [10], 11.6 µM (inactive); in assay [11] it was 14 µM (inactive); in [12], 12.8 µM (inactive). The GI50 in assay [13] is 16.8 µM (inactive); in [14], 13 µM (inactive); in [15], 5.87 µM (inactive); in [16], 11.4 µM (inactive); in [17] it was 15.1 µM (inactive).
Consider `O=C1OC(CS(=O)(=O)c2ccccc2)CC1O` (stereo unspecified), for which the GI50 in [1], in assay [2], in assay [3], in [5], in assay [6] and in [18] was > 100 µM (inactive) throughout. Besides, the GI50 in [7], in [19], in [8], in [9], in assay [10] and in assay [11] was > 100 µM (inactive) throughout. The GI50 in [12] was > 100 µM (inactive); in assay [13], > 100 µM (inactive); in assay [14], > 100 µM (inactive); in assay [15], > 100 µM (inactive); in [16] it was 55.6 µM (inactive); in [17], > 100 µM (inactive).
On to `Nc1ccc(O)c2c1C(=O)c1c(N)ccc(O)c1C2=O`, for which the GI50 in [1], in [2], in assay [3], in assay [4], in assay [5] and in assay [6] was > 100 µM (inactive) throughout. In addition, the GI50 in assay [7], in assay [8], in assay [9], in assay [11], in [12] and in assay [13] was > 100 µM (inactive) throughout. The GI50 in assay [14], in [15], in assay [16] and in [17] was > 100 µM (inactive) each time.
On to `COc1cc2c3c(n(C)c(=O)c2cc1OC)-c1cc2c(cc1/C3=C/CCCCBr)OCO2`, for which the GI50 in assay [1] is > 100 µM (inactive); in [3] it was 4.4 µM (inactive); in assay [4] it was 30.3 µM (inactive); in assay [6], 4.51 µM (inactive); in assay [19], > 100 µM (inactive); in assay [20], > 100 µM (inactive). Further, the GI50 in [8] was 24.8 µM (inactive); in assay [10] it was > 100 µM (inactive); in assay [11], 16.1 µM (inactive); in [12], 62.8 µM (inactive); in assay [13], 35.6 µM (inactive); in assay [14], 32.9 µM (inactive). The GI50 in [15] is 54 µM (inactive); in assay [16], 71 µM (inactive); in assay [17], 17.8 µM (inactive).
For the compound `CCOc1cc2c(OCc3ccccc3)cc3c4cc(OC)c(OC)cc4c[n+](C)c3c2cc1OC`, the GI50 was 4.82 µM (inactive) in assay [1]; 1.56 µM (inactive) in assay [2]; 19.4 µM (inactive) in [3]; 1.3 µM (inactive) in assay [5]; 0.818 µM (active) in assay [6]; 0.789 µM (active) in assay [18]. Besides, the GI50 in [7] was 1.57 µM (inactive); in assay [19], 2.29 µM (inactive); in assay [8], 2.73 µM (inactive); in assay [9], 2.04 µM (inactive); in assay [10] it was 2.66 µM (inactive); in assay [11], 1.47 µM (inactive). Also, the GI50 in [12] is 2.07 µM (inactive); in assay [13] it was 1.18 µM (inactive); in assay [14] it was 2.03 µM (inactive); in [15], 1.38 µM (inactive); in assay [16], 25.3 µM (inactive); in assay [17] it was 4.97 µM (inactive).
With `CCOc1ccccc1/N=N/c1ccc2oc(=O)c(C(C)=O)cc2c1`, the GI50 in assay [1], in assay [2], in assay [4], in assay [5], in assay [6] and in [7] was > 100 µM (inactive) in each case. In addition, the GI50 in [8], in assay [9], in [10], in [11], in assay [12] and in [13] was > 100 µM (inactive) in each case. Besides, the GI50 in assay [14] is > 100 µM (inactive); in assay [15], > 100 µM (inactive); in assay [16] it was > 100 µM (inactive); in [17], > 10 µM (inactive).
For `CN1CC[C@@H](c2c(O)cc(O)c3c(=O)cc(-c4ccccc4Cl)oc23)[C@@H](O)C1`, the GI50 in assay [1] is 0.0543 µM (active); in assay [2], 0.02 µM (active); in assay [3], 0.0237 µM (active); in [4], 0.0211 µM (active); in [5], 0.0343 µM (active); in assay [6] it was 0.0367 µM (active). Further, the GI50 in assay [18] was 0.0332 µM (active); in assay [7], 0.0693 µM (active); in assay [19], 0.0394 µM (active); in assay [8], 0.0365 µM (active); in assay [9], 0.0643 µM (active); in assay [10] it was 0.0942 µM (active). Also, the GI50 was 0.0333 µM (active) in [11]; 0.0191 µM (active) in [12]; 0.167 µM (active) in assay [13]; 0.034 µM (active) in assay [14]; 0.0248 µM (active) in assay [15]; 0.0266 µM (active) in assay [16]. For the same compound, in [17], the GI50 was 0.0352 µM (active).
As for `COc1cc(O)c2c(c1O)C(=O)c1cc(C)ncc1C2=O`, the GI50 is 17 µM (inactive) in [1]; 16.5 µM (inactive) in assay [2]; 24.3 µM (inactive) in [3]; 17.7 µM (inactive) in [4]; 17.4 µM (inactive) in [5]; 30.8 µM (inactive) in assay [6]. Further, the GI50 is 22.5 µM (inactive) in assay [7]; 12.4 µM (inactive) in [8]; 35.4 µM (inactive) in assay [9]; 15.3 µM (inactive) in assay [10]; 20.2 µM (inactive) in assay [11]; 13.9 µM (inactive) in assay [12]. The GI50 in [13] was 20 µM (inactive); in assay [14], 24.8 µM (inactive); in assay [15], 11.6 µM (inactive); in assay [16] it was 14.3 µM (inactive); in assay [17], 13.8 µM (inactive).
For `C#CCOC(=O)C=[N+]=[N-]`, the GI50 in assay [1], in assay [2], in assay [3], in [4], in [5] and in assay [6] was > 10 µM (inactive) throughout. Further, the GI50 in assay [18], in [19], in [8], in [10], in [11] and in assay [12] was > 10 µM (inactive) throughout. For the same compound, the GI50 in [13], in [14], in assay [16] and in assay [17] was > 10 µM (inactive) throughout.
`COC(=O)C1CC(C(=O)OC)c2nc3cc(C)c(C)cc3nc21` (stereo unspecified): the GI50 in assay [1], in assay [3], in assay [4], in assay [5], in assay [6] and in assay [7] was > 100 µM (inactive) in each case. Besides, the GI50 in assay [8], in [9], in assay [10], in assay [11], in assay [12] and in [13] was > 100 µM (inactive) each time. The GI50 in [14], in assay [15], in assay [16] and in assay [17] was > 100 µM (inactive) each time.
Regarding `O=C(c1ccc2ccccc2c1)C1S(=O)(=O)OCCOS1(=O)=O`, the GI50 in assay [1], in assay [2], in [3], in assay [4], in assay [6] and in assay [18] was > 100 µM (inactive) in each case. The GI50 in assay [7], in assay [8], in [9], in [10], in [12] and in assay [13] was > 100 µM (inactive) throughout. The GI50 in assay [14], in assay [15], in [16] and in [17] was > 100 µM (inactive) each time.
With `CC12CCC(/C(=N/c3ccc([N+](=O)[O-])cc3)C1=O)C2(C)C` (stereo unspecified), the GI50 in assay [1] is 36.1 µM (inactive); in [2], 19.1 µM (inactive); in assay [3], > 100 µM (inactive); in [5], 18.2 µM (inactive); in [18] it was 17.1 µM (inactive); in assay [7], 17.4 µM (inactive). In addition, the GI50 in [19] was 18.3 µM (inactive); in assay [8], 31.6 µM (inactive); in assay [9], 13.1 µM (inactive); in assay [10], 21 µM (inactive); in assay [11], 23.3 µM (inactive); in [12], 14.7 µM (inactive). The GI50 in assay [13] was 19 µM (inactive); in [14], 27.9 µM (inactive); in assay [15], 26.2 µM (inactive); in assay [16] it was 17.8 µM (inactive); in [17], 25.6 µM (inactive).

The record behind these values is ChEMBL document CHEMBL1201862, “PubChem BioAssay data set” (2004).
